Key:
Type in all cases: in vivo
[1] = test system: induced type 2 diabetic mice; assay: Water intake test in induced type 2 diabetic mice; settings: high dose 10 mg/kg and low dose 2.5 mg/kg; 40-day period; vs induction treatment group STZ
Experimental: (§1) Male ICR mice (19-21 g) were obtained from BioLASCO Taiwan Co., Ltd. The mice were kept in the animal center of Transworld University at a controlled temperature of 22±2° C., relative humidity 55±5%, and with 12 hour light/12 hour dark cycles for 1 week before the experiment. For the induction of type 2 diabetic mice (induction treatment group STZ), Nicotinamide (210 mg/kg b.w.) (Sigma, Saint Louis, Mo., USA), dissolved in saline was intraperitoneally injected into mice. After 15 minutes, the mice were administered with […] (STZ) (Sigma, 180 mg/kg bw, ip injection), which was dissolved in citrate buffer (pH 4.5) before use. The control group received both vehicles. During the experimental period, the animals' food intake and body weight were monitored once a week. […]
In general, diabetic patients usually have clinical symptoms of “drinking more water.” In this experimental example, the water intake was recorded in a 40-day period for the blank group Sham, the induction treatment group STZ, Neoandrographolide low dose group NeoL (2.5 mg/kg), Neoandrographolide middle dose group NeoM (5.0 mg/kg) and Neoandrographolide high dose group NeoH (10 mg/kg).

[2] = test system: induced type 2 diabetic mice; assay: Oral glucose tolerance test; settings: NeoL 2.5, NeoM 5.0, NeoH 10 mg/kg; within 0 to 3 hours after glucose 2 g/kg; vs induction treatment group STZ
Experimental: as §1, with “week. In addition, the dosage of the Neoandrographolide (Sigma-Aldrich Chemical Co., Missouri, USA) of the present invention is: NeoL (low dose group of Neoandrographolide): Neoandrographolide 2.5 mg/kg; NeoM (middle dose group of Neoandrographolide): Neoandrographolide 5.0 mg/kg; NeoH (high dose group of Neoandrographolide): Neoandrographolide 10 mg/kg. The above active ingredient was dissolved in Tween 20 and adjusted to a 0.5% methylcellulose (CMC) solution. The blank group (Sham) was normal mice without induction treatment.” for “week.”

[3] = test system: induced type 2 diabetic mice; assay: Fasting blood glucose assay; settings: NeoL 2.5, NeoM 5.0, NeoH 10 mg/kg; seven days after administration; vs induction treatment group STZ
Experimental: as §1
(§2) In this experimental example, the fasting blood glucose values were recorded in a 42-day period for the blank group Sham, the induction treatment group STZ, Neoandrographolide low dose group NeoL (2.5 mg/kg), Neoandrographolide middle dose group NeoM (5.0 mg/kg) and Neoandrographolide high dose group NeoH (10 mg/kg).

[4] = test system: induced type 2 diabetic mice; assay: Glycated hemoglobin (HbA1c) assay; settings: NeoL 2.5, NeoM 5.0, NeoH 10 mg/kg; after 42 days of continuous administration; vs induction treatment group STZ
Experimental: as §1
as §2, with “glycated hemoglobin (HbA1c)” for “fasting blood glucose”, “values of mice” for “values”, “period after continuous administration” for “period”

[5] = test system: induced type 2 diabetic mice; assay: Aspartate aminotransferase (AST) assay
Experimental: (§3) Male ICR mice (19-21 g) were obtained from BioLASCO Taiwan Co., Ltd. The mice were kept in the animal center of Transworld University at a controlled temperature of 22±2° C., relative humidity 55±5%, and with 12 hour light/12 hour dark cycles for 1 week before the experiment. For the induction of type 2 diabetic mice (induction treatment group STZ), Nicotinamide (210 mg/kg b.w.) (Sigma, Saint Louis, Mo., USA), dissolved in saline was intraperitoneally injected into mice. After 15 minutes, the mice were administered with […] (STZ) (Sigma, 180 mg/kg bw, ip injection), which was dissolved in citrate buffer (pH 4.5) before use. The control group received both vehicles. During the experimental period, the animals' food intake and body weight were monitored once a week. In addition, the dosage of the Neoandrographolide (Sigma-Aldrich Chemical Co., Missouri, USA) of the present invention is: NeoL (low dose group of Neoandrographolide): Neoandrographolide 2.5 mg/kg; NeoM (middle dose group of Neoandrographolide): Neoandrographolide 5.0 mg/kg; NeoH (high dose group of Neoandrographolide): Neoandrographolide 10 mg/kg. The above active ingredient was dissolved in Tween 20 and adjusted to a 0.5% methylcellulose (CMC) solution. The blank group (Sham) was normal mice without induction treatment.
(§4) After completion of the test, surviving animals were sacrificed; before necropsy, blood samples were collected for serum biochemistry.
as §2, with “AST index of mice” for “fasting blood glucose values”, “period after continuous administration” for “period”

[6] = test system: induced type 2 diabetic mice; assay: Triglyceride assay
Experimental: as §3, §4
as §2, with “triglyceride values and the total cholesterol in” for “fasting”, “of mice” for “glucose values”, “period after continuous administration” for “period”

[7] = test system: induced type 2 diabetic mice; assay: Total cholesterol assay
Experimental: as §1
as §2, with “triglyceride values and the total cholesterol in” for “fasting”, “of mice” for “glucose values”, “period after continuous administration” for “period”

[8] = test system: induced type 2 diabetic mice; assay: Uric acid assay; settings: NeoL 2.5, NeoM 5.0, NeoH 10 mg/kg; after 42 days of continuous administration; vs induction treatment group STZ
Experimental: as §1
as §2, with “serum uric acid index of mice was” for “fasting blood glucose values were”, “period after continuous administration” for “period”

[9] = test system: induced type 2 diabetic mice; assay: Serum creatinine assay; settings: NeoL 2.5, NeoM 5.0, NeoH 10 mg/kg; after 42 days of continuous administration; vs induction treatment group STZ
Experimental: as §1
as §2, with “serum creatine index of mice was” for “fasting blood glucose values were”, “period after continuous administration” for “period”

[10] = NeoL 2.5, NeoM 5.0, NeoH 10 mg/kg, after 42 days of continuous administration, vs induction treatment group STZ

C=C1CC[C@@H]2[C@](C)(CO[C@@H]3O[C@H](CO)[C@@H](O)[C@H](O)[C@H]3O)CCC[C@@]2(C)[C@@H]1CCC1=CCOC1=O [Neoandrographolide]
amount of water intake [1]: significantly reduced
blood glucose levels in oral glucose tolerance test [2]: significantly lower
fasting blood glucose values [3]: significantly lower
HbA1c values [4]: significantly lower
AST values, low dose group ([5]; NeoL 2.5 mg/kg, 42 days, compared among the three dose groups): most significant reduction
AST index [5, 10]: slightly lower
minimum effective dose, improving liver function (AST) ([5]; judged from the experiment): around 2.5 mg/kg
dose dependence of triglyceride-lowering effect ([6]; 2.5 to 10 mg/kg, 42 days): dose-dependent
minimum effective dose, triglyceride-lowering effect ([6]; 42 days): 2.5 mg/kg
triglyceride values [6, 10]: lower
triglyceride values, middle and high dose groups ([6]; NeoM 5.0 mg/kg and NeoH 10 mg/kg, 42 days, compared among the three dose groups): lowest triglyceride values
minimum effective dose, lowering total cholesterol in the blood ([7]; 42 days): 2.5 mg/kg
total cholesterol values in the blood [7, 10]: lower
serum uric acid index [8]: significantly lower
serum creatinine index [9]: significantly lower

— patent US11318153B2, “Method of using Neoandrographolide for lowering blood sugar, lowering blood lipid, improving liver function and improving renal function” (Bioalpha International Sdn. Bhd., priority 2018, dated 2022)
